Source: patent US20260284208A1, “SYSTEM” (Oxford University Innovation Limited, priority 2023, published 2026)

Assays:
Assay type in all cases: cell-based
[1] = target: wild-type IKZF1/IKZF3 ZF degron sequence (WT) fused to eGFP (Homo sapiens, UniProt Q96SW2+Q9UKT9); assay: GFP degradation flow cytometry assay (GFP:mCherry ratio), WT ZF-eGFP; details: for percent degradation of WT ZF-GFP at 10 µM: 18 h, Jurkat, flow cytometry concentration curve; for degradation ability against the WT ZF sequence: flow cytometry assay
Protocol: FIG. 2. A. A plasmid containing a ZF degron fused to GFP in the same gene as mCherry. Jurkats that have been lentivirally transduced with this plasmid will express ZF-GFP and mCherry at a consistent ratio. B Addition of an IMID such as pomalidomide will induce GFP degradation via the degron's functionality. C Incubation with an IMID produces a degradation curve.
Jurkat cells were added to 96 well U-bottom assay plates (Falcon) at 1×10^5 cells per well and treated with compounds for 18 hours at 37° C. and 5% CO2. Cells were stained with 1 μg/mL DAPI (ThermoFisher) and acquired on a Cytoflex S (Beckman Coulter). Data was analysed using FlowJo 10.8.1 (BD).
To test these compounds, we used a flow cytometry assay (FIG. 2) employing an Jurkat cells—an immortalised human blood cell line—that had been stably transduced with a plasmid using a lentiviral vector. This plasmid contained a gene for a 60 amino acid ZF region derived from IKZF3 fused to eGFP, separated from mCherry by an internal ribosomal entry site (IRES). This meant that these cells would express ZF-GFP and mCherry in consistent relative amounts, so under normal conditions the ratio of GFP:mCherry would remain the same regardless of overall expression levels. However, upon incubation with an IMID, ZF-GFP would be selectively degraded, altering this ratio and thus providing an easily measurable proxy for level of ZF degradation.
We carried out three biological replicates of this assay for each IMID analogue with a 0.1% DMSO control and six concentrations of IMID (1 nM, 10 nM, 100 nM, 1 μM, 10 μM and 100 μM) for each compound. This yielded a degradation curve for each compound, from which a pDC50 value could be derived, indicating how potent a degrader each of our compound were relative to thalidomide, lenalidomide and pomalidomide.

[2] = target: AEVK-GFP in transduced Jurkat cells (Homo sapiens, UniProt Q96SW2+Q9UKT9, N149E/Q147A/Q150V/S154K); assay: Immunoblotting of AEVK ZF-eGFP; details: 10 μM; Jurkats transduced with AEVK-GFP
Protocol: Jurkat cells were added to T25 flasks (Falcon) at 2×10^6 cells per flask and were incubated with compounds for 18 hours at 37° C. and 5% CO2. Cells were lysed in buffer containing 9 M urea (Sigma), 75 mM Tris-HCl (Sigma), 0.15 M β-mercaptoethanol (Merck) and 10× diluted protease inhibitor cocktail (Merck). Cells lysates were sonicated for 10 seconds 3 times, centrifuged at 13000 rpm for 10 minutes at 4° C. and the supernatants were transferred into fresh tubes. Protein concentrations were measured using a Pierce BCA Protein Assay Kit (Thermo). Proteins were boiled in Laemmli sample buffer (Bio-Rad) for 5 minutes at 100° C. and separated by SDS-PAGE (7.5% Mini-PROTEAN TGX gels, Bio-Rad) and compared to the PageRuler Prestained Protein Ladder (Thermo). Semi-dry blotting was done on a Trans-Blot Turbo Transfer System (Bio-Rad) with the Trans-Blot Turbo RTA Mini 0.2 μm PVDF Transfer Kit (Bio-Rad) using the default mixed molecular weight mode. […] Membranes were scanned with a Bio-Rad ChemiDoc XRS+ Imaging System (Bio-Rad) and signal intensities were quantified using Image Lab software (Bio Rad). Band densitometry was assessed, normalized to vinculin bands, and reported as percentage of the DMSO control lane.

[3] = target: endogenous IKZF3 in Jurkat cells (Homo sapiens, UniProt Q96SW2+Q9UKT9); assay: Immunoblotting of endogenous IKZF3; details: for endogenous IKZF3 level relative to DMSO control (Western blot): 1 μM or 10 μM, untransduced Jurkat cells; for ability to degrade endogenous IKZF3 (Western blot): even at 10 uM
Protocol: Jurkat cells were added to T25 flasks (Falcon) at 2×10^6 cells per flask and were incubated with compounds for 18 hours at 37° C. and 5% CO2. Cells were lysed in buffer containing 9 M urea (Sigma), 75 mM Tris-HCl (Sigma), 0.15 M β-mercaptoethanol (Merck) and 10× diluted protease inhibitor cocktail (Merck). Cells lysates were sonicated for 10 seconds 3 times, centrifuged at 13000 rpm for 10 minutes at 4° C. and the supernatants were transferred into fresh tubes. Protein concentrations were measured using a Pierce BCA Protein Assay Kit (Thermo). Proteins were boiled in Laemmli sample buffer (Bio-Rad) for 5 minutes at 100° C. and separated by SDS-PAGE (7.5% Mini-PROTEAN TGX gels, Bio-Rad) and compared to the PageRuler Prestained Protein Ladder (Thermo). Semi-dry blotting was done on a Trans-Blot Turbo Transfer System (Bio-Rad) with the Trans-Blot Turbo RTA Mini 0.2 μm PVDF Transfer Kit (Bio-Rad) using the default mixed molecular weight mode. Membranes were blocked in 5% non-fat dry milk (Bio Rad) in TBS-T. Primary IKZF3 (D1C1E, Cell Signaling Technology Europe), eGFP (F56-6A1.2.3, Thermo) and vinculin (E1E9V, Cell Signaling Technology Europe and sc-25336, Santa Cruz Biotechnologies) antibodies were diluted 1000×, 500× and 50× respectively in 5% non-fat dry milk in TBS-T. Membranes were incubated with primary antibodies overnight at 4° C., washed with TBS-T 3 times, incubated with HRP conjugated secondary antibodies (Promega) for 1 hour at room temperature, washed with TBS-T 3 times and imaged with Clarity Western ECL substrate (Bio-Rad). Membranes were scanned with a Bio-Rad ChemiDoc XRS+ Imaging System (Bio-Rad) and signal intensities were quantified using Image Lab software (Bio Rad). Band densitometry was assessed, normalized to vinculin bands, and reported as percentage of the DMSO control lane.

[4] = target: IKZF3 130-189aa Q147W N149E Q150I (WEIS) ZF-GFP (Homo sapiens, UniProt Q96SW2+Q9UKT9, N149E/Q147W/Q150I); assay: GFP degradation flow cytometry assay, WEIS mutant ZF-eGFP
Protocol: The following method was used to generate lentiviral vectors for plasmids tested in library hit confirmation experiments: WT, QPIS, ANQS, APIS, HEIP, FEVP, WEIK, FDIP, AEVK, WNQS, WEIS, WNIQ, and WDIA. HEK293T cells were seeded into 6 well TC-treated cell culture dishes (Falcon) at 7×10^5 cells per well and incubated overnight at 37° C. and 5% CO2. […] In a separate tube 2 μL of PEIPro (Polyplus) was added to 100 μL of OptiMEM. The solution containing PEIPro and DNA was mixed and incubated at room temperature for 15 minutes to create the transfection mixture. The transfection mixture was added to cells and incubated for 5-6 hours at 37° C. and 5% CO2. After 2 days, the supernatant was harvested and fresh media was added to cells. 24 hours later, the supernatant was harvested and combined with the first supernatant harvested. Supernatant was centrifuged at 2000×g room temperature for 5 minutes, then the supernatant was filtered through a 0.45 μm cellulose acetate syringe filter and frozen at −80° C. […]
Jurkat cells were added to 96 well U-bottom assay plates (Falcon) at 1×10^5 cells per well and treated with compounds for 18 hours at 37° C. and 5% CO2. […] Data was analysed using FlowJo 10.8.1 (BD).
Having assessed the broad trends from this library screen, the sequences with the highest log FC values for A63 and B08 were selected and transduced into separate Jurkat cell lines. […]

wild-type IKZF1/IKZF3 ZF degron sequence (WT) fused to eGFP, sequence (Q9UKT9 130-189): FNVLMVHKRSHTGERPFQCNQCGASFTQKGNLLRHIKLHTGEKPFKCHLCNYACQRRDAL
wild-type IKZF1/IKZF3 ZF degron sequence (WT) fused to eGFP, sequence (Q96SW2 whole entry, the tested form may be a part): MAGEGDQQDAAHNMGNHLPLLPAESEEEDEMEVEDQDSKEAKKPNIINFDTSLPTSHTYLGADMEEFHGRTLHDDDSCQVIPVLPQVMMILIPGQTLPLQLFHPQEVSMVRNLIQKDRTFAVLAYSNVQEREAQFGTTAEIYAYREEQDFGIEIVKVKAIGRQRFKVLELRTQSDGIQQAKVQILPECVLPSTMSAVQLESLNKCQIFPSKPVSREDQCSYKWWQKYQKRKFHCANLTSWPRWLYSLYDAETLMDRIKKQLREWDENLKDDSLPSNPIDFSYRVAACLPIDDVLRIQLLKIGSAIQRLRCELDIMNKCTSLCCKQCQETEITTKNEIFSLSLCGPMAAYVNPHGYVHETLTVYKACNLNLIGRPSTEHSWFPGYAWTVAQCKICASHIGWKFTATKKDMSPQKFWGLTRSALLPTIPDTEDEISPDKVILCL
endogenous IKZF3 in Jurkat cells, sequence (Q9UKT9 whole entry): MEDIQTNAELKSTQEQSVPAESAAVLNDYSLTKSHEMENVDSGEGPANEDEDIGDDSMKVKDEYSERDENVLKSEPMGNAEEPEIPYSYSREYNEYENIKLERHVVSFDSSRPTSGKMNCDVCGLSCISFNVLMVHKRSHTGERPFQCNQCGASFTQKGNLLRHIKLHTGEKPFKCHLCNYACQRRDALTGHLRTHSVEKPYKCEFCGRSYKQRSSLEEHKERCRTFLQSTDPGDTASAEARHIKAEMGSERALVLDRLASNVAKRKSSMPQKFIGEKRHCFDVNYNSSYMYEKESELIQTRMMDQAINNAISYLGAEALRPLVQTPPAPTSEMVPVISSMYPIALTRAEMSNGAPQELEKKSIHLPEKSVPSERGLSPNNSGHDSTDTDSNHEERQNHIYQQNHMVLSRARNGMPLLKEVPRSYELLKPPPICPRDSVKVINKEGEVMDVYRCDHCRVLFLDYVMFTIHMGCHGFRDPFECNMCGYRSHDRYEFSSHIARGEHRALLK
endogenous IKZF3 in Jurkat cells, sequence (Q96SW2 whole entry): as the sequence (Q96SW2 whole entry, the tested form may be a part) above
IKZF3 130-189aa Q147W N149E Q150I (WEIS) ZF-GFP, sequence (Q9UKT9 130-189 Q147W/N149E/Q150I): as the sequence (Q9UKT9 130-189) above, with Q18W, N20E, Q21I counted along it
IKZF3 130-189aa Q147W N149E Q150I (WEIS) ZF-GFP, sequence (Q96SW2 whole entry): as the sequence (Q96SW2 whole entry, the tested form may be a part) above
AEVK-GFP in transduced Jurkat cells, sequence (Q9UKT9 130-189 Q147A/N149E/Q150V/S154K): as the sequence (Q9UKT9 130-189) above, with Q18A, N20E, Q21V, S25K counted along it
AEVK-GFP in transduced Jurkat cells, sequence (Q96SW2 whole entry): as the sequence (Q96SW2 whole entry, the tested form may be a part) above

Compound	percent degradation of WT ZF-GFP at 10 µM [1] [%]	degradation ability against the WT ZF sequence [1]	degradation of AEVK-GFP (Western blot) [2]	endogenous IKZF3 level relative to DMSO control (Western blot) [3]	level of endogenous IKZF3 (Western blot) ([3]; 10 μM, Jurkats transduced with AEVK-GFP)	ability to degrade endogenous IKZF3 (Western blot) [3]	inhibition at up to 10 µM ([4]; 18 h, 10 μM, Jurkat, flow cytometry concentration curve, read-out: degradation of the top mutant ZF-GFP (WEIS)) [%]	selectivity compared to the WT ZF (WEIS) ([4]; from pDC50 values, 12 concentrations 5 nM-10 μM)
CC(C)(C)c1ccc2c(c1)C(=O)N(C1CCC(=O)NC1=O)C2=O (stereo not drawn) [A63, 5-(tert-butyl)-2-(2,6-dioxopiperidin-3-yl)isoindoline-1,3-dione]	60 to 70	some degradation ability	full degradation	unaffected	remains unaffected	neither A63 nor B08 possess ability to degrade endogenous IKZF3	–	–
CN1CCN(c2ccc3c(c2)C(=O)N(C2CCC(=O)NC2=O)C3=O)CC1 (stereo not drawn) [B08, 2-(2,6-dioxopiperidin-3-yl)-5-(4-methylpiperazin-1-yl)isoindoline-1,3-dione]	60 to 70	some degradation ability	–	unaffected	–	neither A63 nor B08 possess ability to degrade endogenous IKZF3	~100	around 30 ×
